The values that follow come from patent publication US10022447B2, “Solid pharmaceutical compositions containing pregabalin” (Warner-Lambert Company LLC, priority 2005, dated 2018).

Molecules are shown by their SMILES.

The data set can be described thus: Clinical studies of regional GI absorption of pregabalin. The class given is in vivo. The following applies: humans. From the text:
Once daily dosing of pregabalin, however, presents numerous challenges. Conventional extended release (ER) compositions are problematic for QD dosing because pregabalin is not absorbed uniformly in the gastrointestinal (GI) tract. […] Furthermore, pregabalin is a γ-amino acid which under normal storage conditions may undergo intramolecular cyclization to form a lactam, 4-isobutyl-pyrrolidin-2-one. See, e.g., WO 99/10186 and WO 99/59573, both to A. Aomatsu. Although it is known that the non-active components of the pharmaceutical composition may affect lactam formation, it is difficult to predict which excipients may lead to undesirable lactam formation.

For `CC(C)C[C@H](CN)CC(=O)O` [pregabalin, (S)-(+)-3-aminomethyl-5-methyl-hexanoic acid], the mean absorption window entry was “about six hours or less” and the “regional absorption in the GI tract” value is “poorly absorbed beyond the hepatic flexure”.
